Tests used:
[1] = biological target: T1, KDM4E (Homo sapiens, UniProt B2RXH2); assay: FDH-coupled demethylation assay, Michaelis–Menten kinetics; format: biochemical
T1 construct: KDM4E1–337; made in house; host or cells: E. coli
T1 sequence (B2RXH2 1-337): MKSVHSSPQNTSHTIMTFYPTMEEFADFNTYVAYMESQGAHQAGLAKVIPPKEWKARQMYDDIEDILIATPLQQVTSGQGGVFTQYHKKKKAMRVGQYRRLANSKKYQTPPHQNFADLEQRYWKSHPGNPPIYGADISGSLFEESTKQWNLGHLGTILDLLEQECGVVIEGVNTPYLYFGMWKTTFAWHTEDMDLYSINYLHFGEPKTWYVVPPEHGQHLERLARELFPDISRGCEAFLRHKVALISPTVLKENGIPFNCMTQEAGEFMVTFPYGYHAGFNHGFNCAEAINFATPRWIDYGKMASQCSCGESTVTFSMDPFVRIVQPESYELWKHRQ
Description: The RDM activity of KDM4E with H2a(1–20)R3me2a was compared with demethylation of H3(1–21)R2me2a using a formaldehyde dehydrogenase (FDH) assay[23],[24]. KDM4E catalysed demethylation of H2a R3me2a was less efficient than H3 R2me2a by approximately three-fold under the same conditions (kcat/KM 0.89 hr^−1 µM^−1 for H2a(1–20)R3me2a and 2.58 hr^−1 µM^−1 for H3(1–21)R2me2a).
When LC–MS-based assays were used, time course assays were carried out as described; product formation (%) was plotted against time (s) using GraphPad Prism5 version 5.04. The gradient of each reaction was calculated by fitting a line of linear regression to the first-order region. The resultant slope was used to calculate reaction rate in µM hr^−1. The rate versus peptide concentration (µM) was plotted and the KM, kcat, and Vmax values determined by fitting the Michaelis–Menten equation using GraphPad Prism5 version 5.04. […]
Supplementary Figure 3 KDM4E catalysed H2a(1–20) hydroxylation and H3(1–21)R2me2a demethylation. Michaelis–Menten plots monitoring: ( a) hydroxylation of H2a(1–20) measured using LC– MS (R2 value obtained was 0.5 indicating poor goodness of fit, likely due to limited data at low substrate concentrations due to signal:noise limitations), (b) demethylation of H2a(1–20)R3me2a, and (c) demethylation of H3(1–21)R2me2a measured using the FDH-coupled demethylation assay. […]

[2] = biological target: T1, KDM4E; assay: Inhibition of KDM4E arginine hydroxylation (ROH), LC–MS; format: biochemical; conditions: for inhibition of +16 Da product formation: KDM4E with H2a(1–20)
Description: µM (NH4)2Fe(SO4)2, and 50 mM HEPES (pH 7.5). (c,d) Inhibition of arginine hydroxylation (ROH) activity of KDM4E by small molecule 2OG oxygenase inhibitors. ( c ) ROH activity measurements were performed using an LC–MS based assay (Error bars; +/- SD; n = 3 independent assays). Conditions: 10 µM H2a(1 -20) incubated with 1 µM KDM4E, 100 µM sodium L-ascorbate, 10 µM (NH4)2Fe(SO4)2 and 100 µM 2OG.
Reactions wer e quenched after 90 min. […]

[3] = biological target: T1, KDM4E; assay: MALDI–TOF MS screen of biotin-tagged H2a(1–20)R3X peptides with KDM4E; format: biochemical; conditions: for +16 Da mass shift (hydroxylation) / −14 Da mass shift (demethylation): 60 min, KDM4E, MALDI–TOF MS, n = 2; for RDM activity: initial screen, biotinylated peptides
Source text: (§1) To investigate whether histone H2a is a JmjC-KDM substrate, we initially used mass spectrometry (MS) to screen a set of biotinylated N-terminal H2a(1–20) peptides with post-translational modifications (PTMs) at Arg-3, i.e. asymmetrically/symmetrically di-methylated Arg-3 (H2aR3me2a, H2aR3me2s, respectively), mono-methylated Arg-3 (H2aR3me1) and citrullinated Arg-3 (H2aR3Ci), against KDM4A, KDM4D, KDM4E and KDM5C. […] H2a(1–20)R3me2a, which appeared to be the most efficient RDM substrate in the screen, was then re-synthesised without a biotin tag and tested for RDM activity using the catalytic domains of all KDM4/KDM5 subfamily members.
(§2) MS-based screening assays with peptides and calf thymus histones were as reported; see Supplementary Table 6 for conditions. Time course assays were based on reported procedures. In brief, equal volumes of the enzyme and substrate solutions were combined to initiate the reaction; 10 µL of 2% (v/v) formic acid (HCOOH) in ddH2O or 100% methanol was added to 10 µL of the reaction mixture to quench reactions at different time points. Unless otherwise stated, time course assays were carried out in triplicate. In some cases, LC–MS was used instead of MALDI-TOF MS to avoid a MALDI matrix induced artefact with the hydroxylated product (Supplementary Fig. 16).
(§3) Supplementary Figure 1 Initial Screen of H2a fragments with KD M4 A, KDM4D, KDM4E, and KDM5C.
(§4) KDM4D, KDM4E, and KDM5C with H2a(1–20)R3X peptides from the AltaBioscience peptide library (Set 5) […]
(§5) (potentially), KDM4E, and KDM5C with H2a(1–20)R3me2a; KDM4E and KDM5C with H2a(1–20)R3me2s; and KDM5C wit h H2a(1–20 )R3 me1 . +1 6 Da mass shift s corr esponding t o hydr oxylat ion, were observed wit h […]
(§6) 20), and H2a(1–20)Ci3 (only with KDM4E).
(§7) H 2 a( 1–20)Ci3 and KDM5C with H2a(1–20 ) . […]
(§8) peptides except H2a(1–20)R3me2a. * Low-level peaks indicating ~10% demethylation. Experiments were repeated with the same results. For assay conditions see Supplementary Table 6 (n = 2, independent assays). Peptides were synthesised linked with C-terminal Nε-(D-biotin)-L- ly si ne -amide group (see
(§9) Supplementary Table 5 ) . […]
(§10) (1 picture or pasted object on this page, not shown here)
(§11) [ E nz ym e] [Peptide] [2OG] [Ascorbate] [(NH4)2F e(S O4)2] [TCEP] Buffer pH7.5 Enzyme Cognate substrate (mM) (mM) (mM) (mM) (mM) (mM) [HE PE S]
(§12) Supplementary Table 6 Summary of MS assay conditions for substrate screening. These conditions enabled efficient turnover of established substrates. Reactions were carried out at 37 °C unless otherwise st ated. […]

[4] = biological target: T2, KDM5C (Homo sapiens, UniProt P41229); assay: MALDI–TOF MS screen of biotin-tagged H2a(1–20)R3X peptides with KDM5C; format: biochemical; conditions: for mass shift / −14 Da mass shift (demethylation): 60 min, KDM5C, MALDI–TOF MS, n = 2; for RDM activity: initial screen, biotinylated peptides
T2 construct: KDM5C 1– 765; made in house; host or cells: Sf9 cells
T2 sequence (P41229 1-765): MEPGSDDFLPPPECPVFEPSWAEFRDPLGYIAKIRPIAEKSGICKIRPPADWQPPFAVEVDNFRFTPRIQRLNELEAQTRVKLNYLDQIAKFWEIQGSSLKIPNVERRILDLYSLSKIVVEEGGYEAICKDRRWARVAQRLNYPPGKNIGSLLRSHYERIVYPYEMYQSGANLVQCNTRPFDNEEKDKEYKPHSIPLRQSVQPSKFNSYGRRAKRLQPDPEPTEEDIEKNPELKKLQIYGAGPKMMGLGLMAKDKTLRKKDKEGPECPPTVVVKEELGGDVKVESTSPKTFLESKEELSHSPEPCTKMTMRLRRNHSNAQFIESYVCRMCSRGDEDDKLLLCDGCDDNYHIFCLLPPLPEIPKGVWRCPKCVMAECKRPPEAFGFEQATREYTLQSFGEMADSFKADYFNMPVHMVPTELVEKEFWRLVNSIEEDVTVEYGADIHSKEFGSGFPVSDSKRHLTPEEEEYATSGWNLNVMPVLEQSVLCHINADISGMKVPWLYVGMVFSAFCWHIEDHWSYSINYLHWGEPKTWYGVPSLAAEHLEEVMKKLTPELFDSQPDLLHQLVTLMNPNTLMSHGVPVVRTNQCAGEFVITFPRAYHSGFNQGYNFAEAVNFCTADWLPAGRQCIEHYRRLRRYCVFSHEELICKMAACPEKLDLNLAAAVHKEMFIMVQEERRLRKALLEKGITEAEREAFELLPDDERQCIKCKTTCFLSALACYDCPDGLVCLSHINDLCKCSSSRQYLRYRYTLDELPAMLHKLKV
Source text: as §1, §2, §3, §4, §5, §6, §7, §8, §9, §10, §11, §12

[5] = system: KDM4D; assay: MALDI–TOF MS screen of biotin-tagged H2a(1–20)R3X peptides with KDM4D; format: biochemical, human; conditions: 60 min, n = 2
Source text: as §1, §2, §3, §4, §5, §6, §7, §8, §9, §10, §11, §12

[6] = system: KDM4A; assay: MALDI–TOF MS screen of biotin-tagged H2a(1–20)R3X peptides with KDM4A; format: biochemical, human; conditions: for RDM activity: initial screen, biotinylated peptides
Source text: as §1, §2, §3, §4, §5, §6, §7, §8, §9, §10, §11, §12

[7] = 60 min, 2 µM KDM4A, 10 µM peptide, MALDI–TOF MS, n = 2

Row | Molecule | inhibition of +16 Da product formation [2] | +16 Da mass shift (hydroxylation) [3] | +16 Da mass shift (hydroxylation) [5] | mass shift [6, 7] | RDM activity [3] | −14 Da mass shift (demethylation) [4] | RDM activity [4] | RDM activity [6] | also measured
1 | AR [ me 2a ] T KQ T AR KST GGKAPR KQ L A [H3(1–21)R2me2a, reference compound] |  |  |  |  |  |  |  |  | kcat/KM (demethylation) ([1]; FDH assay, 2 µM KDM4E, 200 µM 2OG, pH 7.5, n = 3 assay repeats): 717 M⁻¹ s⁻¹; kcat/KM relative to KDM substrate H3 K9me3 (fold less) ([1]; same FDH assay, H3 K9me3 from ref 7): 13 fold
2 | O=C(O)c1ccnc(C(=O)O)c1 [2,4-PDCA, 2,4-pyridine dicarboxylic acid] | inhibited |  |  |  |  |  |  |  | 
3 | O=C(O)CNC(=O)C(=O)O [NOG, N-oxalylglycine] | inhibited |  |  |  |  |  |  |  | 
4 | SGR GKQ GGKAR AKAKT R SSR - NH - Ahx - K- B i oti n [H2a(1–20) (AB), biotinylated H2a(1–20)] |  | observed | potentially | No mass shifts were observed |  |  |  |  | mass shift [4]: No mass shifts were observed
5 | SGR[me1]GKQGGKARAKAKTRSSR-NH-Ahx-K-Biotin [H2a(1–20)R3me1 (AB), biotinylated H2a(1–20) with mono-methylated Arg-3] |  | observed | potentially | No mass shifts were observed | Evidence for RDM activity | observed | Evidence for RDM activity | to a lesser extent | 
6 | Oc1cccc2cccnc12 [IOX1, 8-hydroxyquinoline] | inhibited |  |  |  |  |  |  |  | IC50 [2]: 22.9 µM
7 | SGR[C i]GKQGGKARAKAKTRSSR-NH-Ahx-K-Biotin [H2a(1–20)Ci3 (AB), biotinylated H2a(1–20) with citrullinated Arg-3] |  | observed |  | No mass shifts were observed |  |  |  |  | mass shift [4]: No mass shifts were observed; mass shift [5]: No mass shifts were observed
8 | SGR[me2a]GKQGGKARAKAKTRSSR-NH-Ahx-K-Biotin [H2a(1–20)R3me2a (AB), biotinylated H2a(1–20) with asymmetrically di-methylated Arg-3, AltaBioscience library] |  | observed | potentially |  | Evidence for RDM activity | observed | Evidence for RDM activity | to a lesser extent | −14 Da mass shift (demethylation) [3]: observed; −14 Da mass shift (demethylation) [5]: potentially; −14 Da mass shift (demethylation) ([6]; 60 min, 2 µM KDM4A, 10 µM peptide, 37 °C, MALDI–TOF MS, n = 2): observed
9 | SGR[me2s ]GKQGGKARAKAKTRSSR-NH-Ahx-K-Biotin [H2a(1–20)R3me2s (AB), biotinylated H2a(1–20) with symmetrically di-methylated Arg-3] |  | observed | potentially | No mass shifts were observed | Evidence for RDM activity | observed | Evidence for RDM activity | to a lesser extent | −14 Da mass shift (demethylation) [3]: observed

— PMC11603075 (Communications Biology, 2024)
